Measured values from patent publication US9676786B2, “Pharmacologically active compounds” (The University of Liverpool, priority 2013, dated 2017).
pEC50: −log10 of the molar value. Like-named read-outs stand apart in the source and are kept apart here.

Key:
[1] = biological target: α1 glycine receptor (Homo sapiens (Human), UniProt P23415); assay: Expression and electrophysiological characterization of glycine receptor activity (patch/voltage clamp); type: cell-based; conditions: modulation of agonist induced currents at glycine EC20; means ± s.d.
Sequence of α1 glycine receptor (P23415 29-457 limits assumed): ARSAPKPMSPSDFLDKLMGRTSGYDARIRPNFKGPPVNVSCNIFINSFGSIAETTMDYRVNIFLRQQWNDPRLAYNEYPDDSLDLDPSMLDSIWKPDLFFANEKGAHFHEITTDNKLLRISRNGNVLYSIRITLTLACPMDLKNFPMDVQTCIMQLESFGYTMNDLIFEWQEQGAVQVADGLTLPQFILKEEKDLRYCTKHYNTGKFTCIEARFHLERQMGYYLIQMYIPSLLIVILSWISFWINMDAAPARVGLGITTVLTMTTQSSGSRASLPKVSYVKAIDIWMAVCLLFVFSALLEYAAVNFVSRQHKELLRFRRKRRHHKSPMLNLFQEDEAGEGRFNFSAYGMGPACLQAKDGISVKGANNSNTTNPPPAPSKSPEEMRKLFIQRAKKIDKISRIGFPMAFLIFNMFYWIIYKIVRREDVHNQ
Description: Human embryonic kidney (HEK) 293 cells (ATCC CRL 1573) and/or Xenopus laevis oocytes were used for expressing the human a1-3 glycine receptor subunit as well as human a1, b3, g2 GABA receptor subunit cDNAs inserted into mammalian expression vectors. Patch- and voltage-clamp recording from receptor expressing cells was performed at a holding potential of −70 mV in normal Ringer solution and digitized for analyses. Dose-response curves of agonist induced peak currents (I) were normalized to the maximal current value obtained and fitted with the sigmoidal Hill equation using a Gauss Marquardt iteration, where EC50 represents the glycine/GABA concentration resulting in a half maximal response. Effects of the compounds tested on agonist induced currents were analysed after superfusing the cells with the respective compound for 5 seconds prior to and during agonist application and dose-response curves of modulated currents were determined in the presence of agonist concentrations eliciting a response corresponding to 20% of the maximal inducible current (EC20 value). Results represent means±s.d. and the significance of the data was evaluated using Student's paired t test and considered to be statistically significant at P<0.05.

[2] = Human microsomal stability; type: in vitro ADME
Description: The metabolic stability assay was performed by incubating each test compound (1 μM) with human liver microsomes in duplicate at 37° C. and 0.4 mg/mL protein concentration. The metabolic reaction was initiated by the addition of a NADPH-regenerating system (i.e. NADPH is the cofactor required for CYP450-mediated metabolism) and quenched at various time points over the 60 minute incubation period by the addition of acetonitrile. Control samples (containing no NADPH) were included (and quenched at 2, 30 and 60 minutes) to monitor for potential degradation in the absence of cofactor. Samples were analysed by UPLC-MS (Waters/Micromass Xevo G2 QTOF) under positive electrospray ionisation and MS spectral data acquired in a mass range of 80 to 1200 Daltons.
Test compound concentration versus time data were fitted to an exponential decay function to determine the first-order rate constant for substrate depletion. In cases where clear deviation from first-order kinetics was evident, only the initial linear portion of the profile was utilised to determine the degradation rate constant (k). Each substrate depletion rate constant was then used to calculate: [1] a degradation half-life, [2] an in vitro intrinsic clearance value (CLint, in vitro); [3] a predicted in vivo hepatic intrinsic clearance value (CLint); [4] a predicted in vivo blood clearance value (CLblood); and [5] a predicted in vivo hepatic extraction ratio (EH).
• 1) The substrate concentration employed is well below the apparent KM for substrate turnover; and, • 2) There is no significant product inhibition, nor is there any mechanism-based inactivation of enzyme. The use of hepatic microsomes in the prediction of the in vivo hepatic extraction ratio has two further inherent assumptions (Obach, 1999) which: • 1) NADPH-dependent oxidative metabolism predominates over other metabolic routes (i.e. direct conjugative metabolism, reduction, hydrolysis, etc.); and, • 2) Rates of metabolism and enzyme activities in vitro are truly reflective of those that exist in vivo. Data should be considered within these terms of reference.

[3] = Rat microsomal stability; type: in vitro ADME; conditions: for half-life at 1 μM: rat, rat microsomes
Source text: Rat and human microsomal stability data was obtained using well established protocols known to those skilled in the art.

[4] = test system: neuropathic rats; assay: Comparison of LT-01-25 and LT-01-89: ipsilateral withdrawal latencies to cold (10° C.) stimulus in neuropathic rats; type: in vivo, rat; conditions: male SD rats
[5] = test system: neuropathic rats; assay: Comparison of LT-01-25 and LT-01-89: ipsilateral paw withdrawal thresholds to mechanical pressure in neuropathic rats; type: in vivo, rat; conditions: male SD rats
Description: Male, SD rats. n=6/group. Vehicle: 10% DMSO/10% Solutol HS15/80% saline.
• 1) In rats a peripheral neuropathy was induced by partial ligation of the sciatic nerve in one hind limb. • 2) Two weeks (12-15 days) after induction of peripheral neuropathy stable mechanical (tactile) allodynia was induced in the hind paw of the affected limb. • 3) Five treatment groups of male SD rats (n=8) were used: vehicle control (drug formulation), 3 drug doses, and a positive control, lamotrigine (30 mg/kg). Animals were randomized between groups and the experiment was carried out using blinded conditions. The study was split with n=4/group in each experiment. • 4) Baseline behavioural measurements were obtained prior to surgery and at intervals post-surgery. Predose behavioural measurements were obtained by measuring paw withdrawal thresholds 12-15 days following nerve ligation. • 5) Compound efficacy was determined by measuring paw withdrawal thresholds at specified intervals following vehicle/compound treatment. Methods Animals
Animals were maintained in a controlled lighting environment and given food and water ad libitum. Male Sprague Dawley rats (120-140 g at time of surgery) were used.
Rats were fasted overnight with free access to water and fed 4 hours post-dose.
Tests compounds as well as Lamotrigine (30 mg/kg, volume: 10 ml/kg)) were prepared in the designated formulation (10% DMSO, Solutol HS 15/80% and 0.9% saline for p.o. administration) and administered via the chosen route.
Rats were anaesthetised (isoflurane/O2 inhalation), the left sciatic nerve was exposed at mid-thigh level through a small incision and ⅓ to ½ of the nerve thickness tightly ligated within a 7.0 silk suture. The wound was closed with skin clips. Animals were allowed to recover and compounds administered 12-15 days following surgery.
Compound/vehicle were administered at specified doses. Following treatment, further readings were taken; 1, 3, 6 and 24 hour after p.o. administration.

[6] = Pharmacokinetic evaluation, oral dosing in rats; type: in vivo, rat; conditions: 10 mg/kg oral
Description: • Dose—10 mg/kg (5 mL/kg) • Route—ORAL • Vehicles—10% DMSO/10% Solutol and SSV • Time—24 h • Procedure Number—6 Vehicles • 10% DMSO/10% Solutol/80% Saline • 1) Compound was weighed out into a clean vial. • 2) DMSO was added into the vial; the vial was vortexed and sonicated it for 15 min. • 3) Solutol HS 15 was heated at 50° C. until a liquid formed, and then was added into the vial. The vial was vortexed for 1-2 min. • 4) 0.9% Saline solution was added to the vial. The vial was vortexed and then sonicated for 10 min. Standard Suspension Vehicle (SSV) • 1) A solution of SSV was made using 0.5% Sodium carboxymethylcellulose, 0.5% Benzyl alcohol, 0.4% Tween80 and 98.6% saline (0.9%) • 2) Compound was weighed out into a clean vial • 3) SSV solution was added into the vial; the vial was vortexed and sonicated it for 15 min. Fasted Rats
Fasted rats were fasted overnight and given access to food immediately after dosing.
• 1) Rats were manually restrained and given a 10 mg/kg oral dose of compound at 5 mL/kg. • 2) At designated time points (0.25, 0.5, 1, 3, 5, 7 and 24 hours) the rats were anaesthetised using isoflurane. • 3) Approximately 300 μL of blood was taken from the tail vein using a 1.5 inch needle treated with heparin and collected into 1.5 mL eppendorf tubes. • 4) After sampling, pressure was applied to the puncture until bleeding ceased. The animals were returned to their cages and given free access to food and water. • 5) Blood samples were stored on ice and then centrifuged at 13,000 rpm for 15 min to separate the plasma. • 6) 150 μL of the plasma was treated with 300 μL of ACN:MeOH (1:1) solution containing the internal standard. The samples were then centrifuged for a further 15 min at 13,000 rpm. • 7) 200 μL of the supernatant was collected and placed in LC-MS vials for analysis. All samples were stored at −80° C. Results

[7] = Cerebrospinal fluid (CSF) levels after oral dosing; type: in vivo; conditions: p.o. dose 3 mg/kg, after 2 hr, fasted male SD rat
[8] = test system: neuropathic rats; assay: Mechanical hyperalgesia, paw withdrawal thresholds in neuropathic rats (partial sciatic nerve ligation); type: in vivo, rat; conditions: neuropathic Wistar rats
Source text: (§1) The wound was closed with skin clips.
(§2) Control animals received vehicle alone.

[9] = test system: neuropathic rats; assay: Cold sensitivity (10° C. cold plate), paw withdrawal latencies in neuropathic rats; type: in vivo, rat; conditions: neuropathic Wistar rats
Source text: as §1, §2

[10] = Rat microsomes, 1 μM, second set marked *
[11] = 10% DMSO/10% Solutol/80% Saline, fasted rats
[12] = 10% DMSO/10% Solutol/80% Saline, non-fasted rats
[13] = rat, plasma, po, 10 mg/kg, 10% DMSO/10% Solutol/80% Saline, fasted rats
[14] = rat, plasma, po, 10 mg/kg, 10% DMSO/10% Solutol/80% Saline, non-fasted rats
[15] = rat, plasma, po, 10 mg/kg, SSV, fasted rats
[16] = rat, plasma, po, 10 mg/kg, SSV, non-fasted rats

## CC(C)c1cc(C(=O)N2CCN(C)CC2)cc(C(C)C)c1O [Example 6, (4-Hydroxy-3-5-diisopropylphenyl)(4-methylpiperazin-1-yl)methanone]
[1]
  pEC50: 11.92

## CC(C)c1cc(C(=O)N2CC(F)C2)cc(C(C)C)c1O [Example 3, (3-Fluoroazetidin-1-yl)(4-hydroxy-3,5-diisopropylphenyl) methanone]
[1]
  pEC50: 9.37

## CC(C)(C)c1cc(C(=O)N2CCOCC2)cc(C(C)(C)C)c1O [LT-01-89, (4-(hydroxy)-3,5-di-tertbutyl)(morpholino)methanone, reference compound]
[2]; human microsomes, 1 μM
  Cl (values marked *): 6.2 mL/min/kg (Cl) *
  t1/2 (values marked *): 138.6 min (t1/2) *
[3]; Rat microsomes, 1 μM
  Cl: 20.38 mL/min/kg
  t1/2: 2.02 h
[3]; [10]
  Cl (values marked *): 5.26 mL/min/kg (Cl)*
  t1/2 (values marked *): 165 min (t1/2)*
[4]; 30 mg/kg p.o., 1 hr
  Cold (10° C.) Stimulus Percentage reversal of predose Hyperalgesia: 1 hr - - - 70%
[4]; 30 mg/kg p.o., 3 hr
  Cold (10° C.) Stimulus Percentage reversal of predose Hyperalgesia: 3 hr - - - 65%
[4]; 30 mg/kg p.o., 6 hr
  Cold (10° C.) Stimulus Percentage reversal of predose Hyperalgesia: 6 hr - - - 10%
[5]; 30 mg/kg p.o., 1 hr
  Mechanical pressure Percentage reversal of predose hyperalgesia: 1 hr - - - 70%
[5]; 30 mg/kg p.o., 3 hr
  Mechanical pressure Percentage reversal of predose hyperalgesia: 3 hr - - - 50%
[5]; 30 mg/kg p.o., 6 hr
  Mechanical pressure Percentage reversal of predose hyperalgesia: 6 hr - - - 20%
[6]; SSV, non-fasted rats
  AUC∞ (area): 5931.7 ng·h/mL
  CL (area)/kg: 17.947 mL/min/kg
  Cmax: 471.2 ng/mL
  Half Life: 20.4 h
  Tmax: 1.2 h
  Vd (area)/kg: 32.7299 L/kg
[7]
  CSF levels: 27 ng/mL
  CSF levels as multiple of EC50: (180 × EC50)

## Nc1nnc(-c2cccc(Cl)c2Cl)c(N)n1 [lamotrigine, reference compound]
[8]; positive control
  Reversal, mechanical (positive control): 65%
[9]; positive control
  Reversal, cold (positive control): 72%

## CC(C)c1cc(C(=O)N2CCO[C@H](C)C2)cc(C(C)C)c1O [Example 2, (R)-(4-(hydroxy)-3,5-diisopropylphenyl)(2-methylmorpholino)methanone]
[1]
  pEC50: 10.22

## CC(C)c1cc(C(=O)N2CCOCC2)cc(C(C)C)c1O [LT-01-25, (4-(hydroxy)-3,5-diisopropylphenyl)(morpholino)methanone]
[2]; human liver microsomes, read-out: t1/2 (values marked *)
  half-life at 1 μM: 8.25 h
[2]; human microsomes, 1 μM
  Cl (values marked *): 2.7 mL/min/kg (Cl) *
[3]; Rat microsomes, 1 μM
  Cl: 3.35 mL/min/kg
[3]; [10]
  Cl (values marked *): 1.07 mL/min/kg (Cl)*
[3]; read-out: t1/2
  half-life at 1 μM: 12.3 h
[3]; second set marked *, read-out: t1/2 (values marked *)
  half-life at 1 μM: 19.2 h
[4]; 10 mg/kg p.o., 1 hr
  Cold (10° C.) Stimulus Percentage reversal of predose Hyperalgesia: 1 hr - - - 85%
[4]; 10 mg/kg p.o., 3 hr
  Cold (10° C.) Stimulus Percentage reversal of predose Hyperalgesia: 3 hr - - - 35%
[4]; 10 mg/kg p.o., 6 hr
  Cold (10° C.) Stimulus Percentage reversal of predose Hyperalgesia: 6 hr - - - 35%
[5]; 10 mg/kg p.o., 1 hr
  Mechanical pressure Percentage reversal of predose hyperalgesia: 1 hr - - - 80%
[5]; 10 mg/kg p.o., 3 hr
  Mechanical pressure Percentage reversal of predose hyperalgesia: 3 hr - - - 90%
[5]; 10 mg/kg p.o., 6 hr
  Mechanical pressure Percentage reversal of predose hyperalgesia: 6 hr - - - 40%
[6]; [11]
  CL (area)/kg: 19.532 mL/min/kg
  Vd (area)/kg: 2.3006 L/kg
[6]; [12]
  CL (area)/kg: 8.423 mL/min/kg
  Vd (area)/kg: 0.9737 L/kg
[6]; SSV, fasted rats
  CL (area)/kg: 9.193 mL/min/kg
  Vd (area)/kg: 1.1426 L/kg
[6]; SSV, non-fasted rats
  CL (area)/kg: 8.662 mL/min/kg
  Half Life: 3.6 h
  Vd (area)/kg: 2.7109 L/kg
[6]; [13]
  AUC(0-inf): 8530 ng·h/mL
  half-life: 1.4 h
[6]; rat, plasma, po, 10 mg/kg, 10% DMSO/10% Solutol/80% Saline, fasted rats, read-out: Cmax
  Cmax: 2420 ng/mL
[6]; rat, plasma, po, 10 mg/kg, 10% DMSO/10% Solutol/80% Saline, fasted rats, read-out: Tmax
  Tmax: 0.3 h
[6]; [14]
  AUC(0-inf): 20400 ng·h/mL
  half-life: 1.4 h
[6]; rat, plasma, po, 10 mg/kg, 10% DMSO/10% Solutol/80% Saline, non-fasted rats, read-out: Cmax
  Cmax: 1710 ng/mL
[6]; rat, plasma, po, 10 mg/kg, 10% DMSO/10% Solutol/80% Saline, non-fasted rats, read-out: Tmax
  Tmax: 4 h
[6]; [15]
  AUC(0-inf): 18100 ng·h/mL
  half-life: 1.4 h
[6]; rat, plasma, po, 10 mg/kg, SSV, fasted rats, read-out: Cmax
  Cmax: 2590 ng/mL
[6]; rat, plasma, po, 10 mg/kg, SSV, fasted rats, read-out: Tmax
  Tmax: 1 h
[6]; [16]
  AUC(0-inf): 19000 ng·h/mL
  half-life: 3.62 h
[6]; rat, plasma, po, 10 mg/kg, SSV, non-fasted rats, read-out: Cmax
  Cmax: 2120 ng/mL
[6]; rat, plasma, po, 10 mg/kg, SSV, non-fasted rats, read-out: Tmax
  Tmax: 0.25 h
[8]; p.o., peak occurred at 3h
  Peak reversal, mechanical (paw pressure): 90%
[7]
  CSF levels: 95 ng/mL
  CSF levels as multiple of EC50: (900 × EC50)
[9]; p.o., peak occurred at 1h
  Peak reversal, cold (10° C. cold plate): 93%
